Test results from patent US20210309685A1, “AMINO ACID SALTS OF NICOTINIC ACID MONONUCLEOTIDE AND NICOTINAMIDE MONONUCLOETIDE AS ANTI-AGEING AGENTS” (Life Biosciences, Inc., priority 2018, published 2021).

test system: COV434 cells; assay: NAD cell assay (NAD cycling method) in COV434 cells; format: cell-based; details: cellular NAD level, 200 uM, 4 hr, mole per mole versus parent NMN (NMN salts) or NaMN (NaMN salts), normalised to protein
Procedure: NAD levels were assayed based on the NAD cycling method of Zhu and Rand, PLoS One (2012), herein incorporated by reference. COV434 cells were maintained in 6 well plates and treated with the indicated compounds at a concentration of 200 uM for 4 hr. Media was removed, plates were washed in cold PBS and cells were scraped down in NAD extraction buffer containing 10 mM nicotinamide, 50 mM Tris HCl, 0.1% Triton X-100. Cells were homogenised by sonication for 5 seconds, and samples were centrifuged at 7,000 g for 5 min at 4 degrees. Aliquots were taken for later protein assay, and samples were then passed through 10 kDa amicon filters at 14,000 g, 30 min at 4 degrees to remove proteins from the sample. Each sample was measured in technical triplicate, with 25 μL sample added to 100 μL ADH cycling mix (0.2 mg/ml alcohol dehydrogenase enzyme, 2% ethanol, 100 mM Tris pH 8.5). Samples were allowed to cycle for 10 min at room temperature, followed by 50 μL addition of an MTT/PMS solution (0.1 mM phenazine methosulfate, 0.8 mM 3-(4,5-Dimethylthiazol-2-yl)-2,5-diphenyltetrazolium bromide), 100 mM Tris-HCl pH 8.5). Plates were then incubated for 15 min and absorbance was measured at 570 nm. NAD concentrations were extrapolated from a standard curve, and normalised to protein concentrations determined by BCA protein assay.
The adjusted fold increase is obtained through a direct comparison on a mole per mole basis between the compared salt and its parent counterpart. In other words, the instant salts derived from NMN parent molecule will only have their NAD activity level measured against NMN based on the same amount (mole) of salt tested in the cell. Likewise those salts derived from NaMN will have their NAD cell activity measured against NaMN. For example, the fold increase of compound I-002 is based on the NAD activity observed in a direct comparison for the same amount of mole of I-002 tested in the cell and that of the NMN parent. Similarly, the fold increase of I-003 is based on the direct comparison with NaMN.

Q: How did the “FOLD increase adjusted for MW (compared to parent molecule)” value (shortened to “FOLD increase adjusted for MW”) turn out when “(S)-1-Carboxy-3-methylbutan-1-aminium 1-((2R,3R,4S,5R)-3,4-dihydroxy-5-((phosphonatooxy)methyl)tetrahydrofuran-2-yl)pyridin-1-ium-3-carboxylate [Compound I-058]” was run?
A: 1.81 fold

Q: Which “FOLD increase adjusted for MW” value does the source give for `O=C([O-])c1ccc[n+]([C@@H]2O[C@H](COP(=O)(O)O)[C@@H](O)[C@H]2O)c1` [Compound I-008, Bis((S)-1-Carboxy-2-(1H-imidazol-4-yl)ethanaminium)-1-((2R,3R,4S,5R)-3,4-dihydroxy-5-((phosphonatooxy)methyl)tetrahydrofuran-2-yl)pyridin-1-ium-3-carboxylate] here?
A: 2.45 fold

Q: `O=C([O-])c1ccc[n+]([C@@H]2O[C@H](COP(=O)(O)O)[C@@H](O)[C@H]2O)c1` [Compound I-016, Bis((S)-1,3-Dicarboxypropan-1-aminium)-1-((2R,3R,4S,5R)-3,4-dihydroxy-5-((phosphonatooxy)methyl)tetrahydrofuran-2-yl)pyridin-1-ium-3-carboxylate] was tested. Which “FOLD increase adjusted for MW” value did it give?
A: 2.29 fold

Q: With “(S)-1-Carboxy-3-methylbutan-1-aminium ((2R,3S,4R,5R)-5-(3-carbamoylpyridin-1-ium-1-yl)-3,4-dihydroxytetrahydrofuran-2-yl)methyl phosphate [Compound I-059]” as the compound, how does the “FOLD increase adjusted for MW” value read?
A: 1.80 fold

Q: With `O=C([O-])c1ccc[n+]([C@@H]2O[C@H](COP(=O)(O)O)[C@@H](O)[C@H]2O)c1` [Compound I-026, Bis((S)-5-amino-5-carboxypentan-1-aminium)-1-((2R,3R,4S,5R)-3,4-dihydroxy-5-((phosphonatooxy)methyl)tetrahydrofuran-2-yl)pyridin-1-ium-3-carboxylate] as the compound, how does the “FOLD increase adjusted for MW” value read?
A: 2.47 fold

Q: For `NC(=O)c1ccc[n+]([C@@H]2O[C@H](COP(=O)([O-])O)[C@@H](O)[C@H]2O)c1` [Compound I-014, (S)-1-Carboxy-2-(1H-indol-3-yl)ethanaminium ((2R,3S,4R,5R)-5-(3-carbamoylpyridin-1-ium-1-yl)-3,4-dihydroxytetrahydrofuran-2-yl)methyl phosphate], which “FOLD increase adjusted for MW” value is on record?
A: 1.51 fold

Q: How did the “FOLD increase adjusted for MW” value turn out when `O=C([O-])c1ccc[n+]([C@@H]2O[C@H](COP(=O)(O)O)[C@@H](O)[C@H]2O)c1` [Compound I-004, Bis((S)-1-Carboxy-2-methylpropan-1-aminium)-1-((2R,3R,4S,5R)-3,4-dihydroxy-5-((phosphonatooxy)methyl)tetrahydrofuran-2-yl)pyridin-1-ium-3-carboxylate] was run?
A: 1.99 fold

Q: How did the “FOLD increase adjusted for MW” value turn out when `O=C(O)c1ccc[n+]([C@@H]2O[C@H](COP(=O)([O-])O)[C@@H](O)[C@H]2O)c1` [Compound I-027, (S)-1-carboxy-3-(methylthio)propan-1-aminium 1-((2R,3R,4S,5R)-5-(((hydrogenphosphonato)oxy)methyl)-3,4-dihydroxytetrahydrofuran-2-yl)pyridin-1-ium-3-carboxylate] was run?
A: 1.49 fold

Q: With `O=C([O-])c1ccc[n+]([C@@H]2O[C@H](COP(=O)(O)O)[C@@H](O)[C@H]2O)c1` [Compound I-015, Bis((S)-1-Carboxy-4-guanidinobutan-1-aminium)-1-((2R,3R,4S,5R)-3,4-dihydroxy-5-((phosphonatooxy)methyl)tetrahydrofuran-2-yl)pyridin-1-ium-3-carboxylate] as the compound, how does the “FOLD increase adjusted for MW” value read?
A: 2.04 fold

Q: How did the “FOLD increase adjusted for MW” value turn out when `O=C([O-])c1ccc[n+]([C@@H]2O[C@H](COP(=O)(O)O)[C@@H](O)[C@H]2O)c1` [Compound I-003, (S)-4-Amino-1-carboxy-4-oxobutan-1-aminium 1-((2R3R,4S,5R)-5-(((hydrogenphosphonato)oxy)methyl)-3,4-dihydroxytetrahydrofuran-2-yl)pyridin-1-ium-3-carboxylate] was run?
A: 1.89 fold

Q: For `O=C([O-])c1ccc[n+]([C@@H]2O[C@H](COP(=O)(O)O)[C@@H](O)[C@H]2O)c1` [Compound I-017, Bis((S)-1-Carboxy-2-(1H-indol-3-yl)ethanaminium)-1-((2R,3R,4S,5R)-3,4-dihydroxy-5-((phosphonatooxy)methyl)tetrahydrofuran-2-yl)pyridin-1-ium-3-carboxylate], which “FOLD increase adjusted for MW” value is on record?
A: 2.40 fold

Q: With `O=C([O-])c1ccc[n+]([C@@H]2O[C@H](COP(=O)(O)O)[C@@H](O)[C@H]2O)c1` [Compound I-009, (S)-1-Carboxy-4-guanidinobutan-1-aminium 1-((2R,3R,4S,5R)-5-(((hydrogenphosphonato)oxy)methyl)-3,4-dihydroxytetrahydrofuran-2-yl)pyridin-1-ium-3-carboxylate] as the compound, how does the “FOLD increase adjusted for MW” value read?
A: 2.03 fold

Q: `O=C(O)c1ccc[n+]([C@@H]2O[C@H](COP(=O)([O-])O)[C@@H](O)[C@H]2O)c1` [Compound I-020, Bis((1S,2R)-1-carboxy-2-hydroxypropan-1-aminium)-1-((2R,3R,4S,5R)-3,4-dihydroxy-5-((phosphonatooxy)methyl)tetrahydrofuran-2-yl)pyridin-1-ium-3-carboxylate] was tested. Which “FOLD increase adjusted for MW” value did it give?
A: 1.52 fold

Q: Which “FOLD increase adjusted for MW” value does the source give for `O=C([O-])c1ccc[n+]([C@@H]2O[C@H](COP(=O)(O)O)[C@@H](O)[C@H]2O)c1` [Compound I-011, (S)-1-Carboxy-2-(1H-indol-3-yl)ethanaminium 1-((2R,3R,4S,5R)-5-(((hydrogenphosphonato)oxy)methyl)-3,4-dihydroxytetrahydrofuran-2-yl)pyridin-1-ium-3-carboxylate] here?
A: 2.35 fold

Q: Which “FOLD increase adjusted for MW” value does the source give for “(R)-1-Carboxy-2-methylpropan-1-aminium 1-((2R,3R,4S,5R)-3,4-dihydroxy-5-((phosphonatooxy)methyl)tetrahydrofuran-2-yl)pyridin-1-ium-3-carboxylate [Compound I-065]” here?
A: 1.54 fold

Q: `NC(=O)c1ccc[n+]([C@@H]2O[C@H](COP(=O)([O-])O)[C@@H](O)[C@H]2O)c1` [Compound I-002, (S)-1-Carboxy-2-methylpropan-1-aminium ((2R, 3S, 4R, 5R)-5-(3-carbamoylpyridin-1-ium-1-yl)-3,4-dihydroxytetrahydrofuran-2-yl)methyl phosphate] was tested. Which “FOLD increase adjusted for MW” value did it give?
A: 1.24 fold

Q: For `O=C([O-])c1ccc[n+]([C@@H]2O[C@H](COP(=O)(O)O)[C@@H](O)[C@H]2O)c1` [Compound I-001, (S)-1-Carboxy-2-methylpropan-1-aminium 1-((2R,3R,4S,5R)-5-(((hydrogenphosphonato)oxy)methyl)-3,4-dihydroxytetrahydrofuran-2-yl)pyridin-1-ium-3-carboxylate], which “FOLD increase adjusted for MW” value is on record?
A: 1.61 fold

Q: Which “FOLD increase adjusted for MW” value does the source give for `O=C([O-])c1ccc[n+]([C@@H]2O[C@H](COP(=O)(O)O)[C@@H](O)[C@H]2O)c1` [Compound I-005, Bis((S)-4-Amino-1-carboxy-4-oxobutan-1-aminium)-1-((2R,3R,4S,5R)-3,4-dihydroxy-5-((phosphonatooxy)methyl)tetrahydrofuran-2-yl)pyridin-1-ium-3-carboxylate] here?
A: 3.05 fold

Q: “(1S,2S)-1-Carboxy-2-methylbutan-1-aminium ((2R,3S,4R,5R)-5-(3-carbamoylpyridin-1-ium-1-yl)-3,4-dihydroxytetrahydrofuran-2-yl)methyl phosphate [Compound I-062]” was tested. Which “FOLD increase adjusted for MW” value did it give?
A: 1.32 fold

Q: How did the “FOLD increase adjusted for MW” value turn out when `NC(=O)c1ccc[n+]([C@@H]2O[C@H](COP(=O)([O-])O)[C@@H](O)[C@H]2O)c1` [Compound I-022, (S)-2-carboxypyrrolidin-1-ium ((2R,3S,4R,5R)-5-(3-carbamoylpyridin-1-ium-1-yl)-3,4-dihydroxytetrahydrofuran-2-yl)methyl phosphate] was run?
A: 1.33 fold

Q: `O=C([O-])c1ccc[n+]([C@@H]2O[C@H](COP(=O)(O)O)[C@@H](O)[C@H]2O)c1` [Compound I-006, (S)-1-Carboxy-2-(1H-imidazol-4-yl)ethanaminium 1-((2R,3R,4S,5R)-5-(((hydrogenphosphonato)oxy)methyl)-3,4-dihydroxytetrahydrofuran-2-yl)pyridin-1-ium-3-carboxylate] was tested. Which “FOLD increase adjusted for MW” value did it give?
A: 1.64 fold
